Measurements taken from patent publication US20230147257A1 (DONG-A ST CO., LTD., priority 2020, published 2023).
Like-named read-outs stand apart in the source and are kept apart here.

Columns and labels:
AhR [1] = biological target: T1, AhR (Mus musculus, UniProt P30561); assay: In vitro assay 2: XRE-luciferase reporter assay, antagonism in mouse cell line (Hepa1c1c7); type: cell-based; conditions: Hepa1c1c7 XRE-Luc, cells treated with kynurenine (#), 6 hours
T1 sequence (P30561 1-848): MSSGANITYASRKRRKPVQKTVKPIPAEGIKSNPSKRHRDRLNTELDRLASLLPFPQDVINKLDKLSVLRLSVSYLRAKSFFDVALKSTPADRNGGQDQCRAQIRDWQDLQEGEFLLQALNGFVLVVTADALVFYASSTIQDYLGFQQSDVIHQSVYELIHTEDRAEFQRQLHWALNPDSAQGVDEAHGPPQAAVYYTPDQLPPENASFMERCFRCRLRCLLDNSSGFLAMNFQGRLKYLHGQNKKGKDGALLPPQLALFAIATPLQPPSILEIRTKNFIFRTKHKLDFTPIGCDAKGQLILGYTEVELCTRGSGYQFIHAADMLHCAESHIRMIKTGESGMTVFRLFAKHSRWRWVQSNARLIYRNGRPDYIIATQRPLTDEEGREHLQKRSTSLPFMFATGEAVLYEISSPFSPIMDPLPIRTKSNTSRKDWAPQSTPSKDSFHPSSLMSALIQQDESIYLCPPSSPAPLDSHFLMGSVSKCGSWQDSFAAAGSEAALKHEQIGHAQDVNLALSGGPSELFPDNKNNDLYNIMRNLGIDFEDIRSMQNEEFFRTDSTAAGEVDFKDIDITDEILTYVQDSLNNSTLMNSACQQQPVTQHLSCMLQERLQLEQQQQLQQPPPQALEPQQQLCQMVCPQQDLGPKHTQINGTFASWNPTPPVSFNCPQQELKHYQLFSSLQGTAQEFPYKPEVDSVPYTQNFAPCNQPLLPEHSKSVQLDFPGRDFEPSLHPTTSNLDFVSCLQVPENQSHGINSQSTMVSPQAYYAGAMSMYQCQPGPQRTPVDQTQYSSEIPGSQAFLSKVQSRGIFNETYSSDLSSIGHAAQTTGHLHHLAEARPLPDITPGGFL
From the text: In Vitro XRE-Luciferase Reporter Assay (In Vitro Assay 1, 2, 3)
AhR activation leads the induction of target gene expression such as CYP1A1 and CYP1B1 by AhR binding to AhR-responsive DNA elements also known as xenobiotics responsive elements (XRE). The assay for measuring AhR activity herein is the luciferase assay using cell lines transfected with luciferase reporter plasmid containing XREs at the upstream of the reporter gene. Cells transfected with XRE-luciferase reporter (XRE-Luc) plasmid drive luciferase activity reflecting activation and inhibition of AhR in the cells. In addition to transfection with XRE-reporter vector, cells were co-transfected with Nano-luciferase reporter gene construct (Nano-Luc) containing constitutively active promoter as internal control. Kynurenine (an endogenous AhR agonist) was used to stimulate cells to test antagonistic properties of the compounds. The half-maximal inhibitory concentration (IC50) or half-maximal effective concentration (EC50) value was calculated using nonlinear regression (four parameters) with Prism8.0 software (GraphPad).
In Vitro Assay 2: Antagonism in Mouse Cell Line
Hepa1c1c7 (murine liver cancer cell line) cells co-transfected with XRE-Luc and Nano-Luc plasmids were plated in complete medium and incubated overnight at 37° C. in a CO2 incubator. Following incubation, cells were treated with AhR activating ligands such as kynurenic acid, kynurenine(#) with or without test compounds for 6 hours. Firefly luciferase and Nano-luciferase activity was measured using Nano-glo Luciferase kit (Promega) and relative luciferase activity (Firefly/Nano-Luc) was used to calculate IC50 values. The relative luciferase activity was further normalized with agonists alone group as the maximum control and the vehicle group as the minimum control. (IC50 Values are grouped as A, B, C and D, whereby A: IC50<0.01 μM; B: 0.01<IC50<0.1 μM; C: 0.1<IC50<1.0 μM; D: IC50>1.0 μM)

AhR [2] = biological target: T2, AhR (Homo sapiens, UniProt P35869); assay: In vitro assay 4: endogenous AhR activity assay (CYP1A1 and CYP1B1 mRNA, qRT-PCR, HepG2 cells); type: cell-based; conditions: TCDD 10 nM with compound 123 nM, 4 hours, mRNA relative to β-actin
T2 construct: host or cells: HepG2
T2 sequence (P35869 11-848): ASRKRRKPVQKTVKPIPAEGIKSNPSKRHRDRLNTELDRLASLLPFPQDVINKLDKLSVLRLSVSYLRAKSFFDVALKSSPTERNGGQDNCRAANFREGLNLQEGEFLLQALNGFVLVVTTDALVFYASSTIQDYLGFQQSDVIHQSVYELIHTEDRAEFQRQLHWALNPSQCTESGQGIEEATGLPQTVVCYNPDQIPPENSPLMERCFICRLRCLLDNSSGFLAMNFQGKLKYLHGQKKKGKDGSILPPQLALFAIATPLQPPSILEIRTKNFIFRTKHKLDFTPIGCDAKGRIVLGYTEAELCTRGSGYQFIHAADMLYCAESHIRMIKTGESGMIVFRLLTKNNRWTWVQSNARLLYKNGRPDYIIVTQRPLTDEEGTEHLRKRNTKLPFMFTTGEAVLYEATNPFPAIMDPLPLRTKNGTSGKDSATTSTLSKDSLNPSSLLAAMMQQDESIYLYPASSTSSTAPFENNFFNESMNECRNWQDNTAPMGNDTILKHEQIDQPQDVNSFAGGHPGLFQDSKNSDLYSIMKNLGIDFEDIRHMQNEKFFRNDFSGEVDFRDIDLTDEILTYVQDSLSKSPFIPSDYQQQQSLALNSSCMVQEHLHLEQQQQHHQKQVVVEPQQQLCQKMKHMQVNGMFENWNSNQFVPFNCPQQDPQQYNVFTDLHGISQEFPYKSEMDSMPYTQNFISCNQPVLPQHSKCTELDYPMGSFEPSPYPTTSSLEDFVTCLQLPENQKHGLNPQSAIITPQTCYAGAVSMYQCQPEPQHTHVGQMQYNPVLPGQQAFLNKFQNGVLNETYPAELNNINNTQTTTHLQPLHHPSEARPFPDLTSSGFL
Procedure: In Vitro Assay 4: Endogenous AhR Activity Assay
HepG2 cells were seeded in 12-well plate (3×10^5 cells/well). A day after seeding, the cells were treated with TCDD (10 nM) alone or with compounds (123 nM) for 4 hours. Total RNA was extracted using Trizol (Thermo Fisher Scientific). cDNA synthesis and quantitative RT-PCR (qRT-PCR) assays were performed using PrimeScript™ RT Master Mix (TAKARA) and TB Green™ Premix Ex Taq™ II (TAKARA) in accordance with manufacturer's instruction. For the measurement of endogenous AhR activity, relative mRNA levels of CYP1A1 and CYP1B1 were quantitated relative to β(beta)-actin mRNA by the comparative Ct (ΔΔCt) method. The percent inhibitions were calculated according to: […]

CC(CO)n1cnc2c(-c3cccnc3)nc(-c3ccc(Cl)cc3)cc2c1=O (stereo not drawn) [Example 46, 6-(4-chlorophenyl)-3-(1-hydroxypropan-2-yl)-8-(pyridin-3-yl)pyrido[3,4-d]pyrimidin-4(3H)-one]
IC50 (AhR [1]): < 10 nM
inhibition at 0.123 µM (AhR [2]; read-out: CYP1A1 (% Inhibition)): 90.7%
inhibition at 0.123 µM (AhR [2]; read-out: CYP1B1 (% Inhibition)): 99.1%
